Structures can show the parent of a compound that is named as a salt.

Sequence of glucan synthase (GS) prepared from Candida albicans MY1055 (O13428 1-1897): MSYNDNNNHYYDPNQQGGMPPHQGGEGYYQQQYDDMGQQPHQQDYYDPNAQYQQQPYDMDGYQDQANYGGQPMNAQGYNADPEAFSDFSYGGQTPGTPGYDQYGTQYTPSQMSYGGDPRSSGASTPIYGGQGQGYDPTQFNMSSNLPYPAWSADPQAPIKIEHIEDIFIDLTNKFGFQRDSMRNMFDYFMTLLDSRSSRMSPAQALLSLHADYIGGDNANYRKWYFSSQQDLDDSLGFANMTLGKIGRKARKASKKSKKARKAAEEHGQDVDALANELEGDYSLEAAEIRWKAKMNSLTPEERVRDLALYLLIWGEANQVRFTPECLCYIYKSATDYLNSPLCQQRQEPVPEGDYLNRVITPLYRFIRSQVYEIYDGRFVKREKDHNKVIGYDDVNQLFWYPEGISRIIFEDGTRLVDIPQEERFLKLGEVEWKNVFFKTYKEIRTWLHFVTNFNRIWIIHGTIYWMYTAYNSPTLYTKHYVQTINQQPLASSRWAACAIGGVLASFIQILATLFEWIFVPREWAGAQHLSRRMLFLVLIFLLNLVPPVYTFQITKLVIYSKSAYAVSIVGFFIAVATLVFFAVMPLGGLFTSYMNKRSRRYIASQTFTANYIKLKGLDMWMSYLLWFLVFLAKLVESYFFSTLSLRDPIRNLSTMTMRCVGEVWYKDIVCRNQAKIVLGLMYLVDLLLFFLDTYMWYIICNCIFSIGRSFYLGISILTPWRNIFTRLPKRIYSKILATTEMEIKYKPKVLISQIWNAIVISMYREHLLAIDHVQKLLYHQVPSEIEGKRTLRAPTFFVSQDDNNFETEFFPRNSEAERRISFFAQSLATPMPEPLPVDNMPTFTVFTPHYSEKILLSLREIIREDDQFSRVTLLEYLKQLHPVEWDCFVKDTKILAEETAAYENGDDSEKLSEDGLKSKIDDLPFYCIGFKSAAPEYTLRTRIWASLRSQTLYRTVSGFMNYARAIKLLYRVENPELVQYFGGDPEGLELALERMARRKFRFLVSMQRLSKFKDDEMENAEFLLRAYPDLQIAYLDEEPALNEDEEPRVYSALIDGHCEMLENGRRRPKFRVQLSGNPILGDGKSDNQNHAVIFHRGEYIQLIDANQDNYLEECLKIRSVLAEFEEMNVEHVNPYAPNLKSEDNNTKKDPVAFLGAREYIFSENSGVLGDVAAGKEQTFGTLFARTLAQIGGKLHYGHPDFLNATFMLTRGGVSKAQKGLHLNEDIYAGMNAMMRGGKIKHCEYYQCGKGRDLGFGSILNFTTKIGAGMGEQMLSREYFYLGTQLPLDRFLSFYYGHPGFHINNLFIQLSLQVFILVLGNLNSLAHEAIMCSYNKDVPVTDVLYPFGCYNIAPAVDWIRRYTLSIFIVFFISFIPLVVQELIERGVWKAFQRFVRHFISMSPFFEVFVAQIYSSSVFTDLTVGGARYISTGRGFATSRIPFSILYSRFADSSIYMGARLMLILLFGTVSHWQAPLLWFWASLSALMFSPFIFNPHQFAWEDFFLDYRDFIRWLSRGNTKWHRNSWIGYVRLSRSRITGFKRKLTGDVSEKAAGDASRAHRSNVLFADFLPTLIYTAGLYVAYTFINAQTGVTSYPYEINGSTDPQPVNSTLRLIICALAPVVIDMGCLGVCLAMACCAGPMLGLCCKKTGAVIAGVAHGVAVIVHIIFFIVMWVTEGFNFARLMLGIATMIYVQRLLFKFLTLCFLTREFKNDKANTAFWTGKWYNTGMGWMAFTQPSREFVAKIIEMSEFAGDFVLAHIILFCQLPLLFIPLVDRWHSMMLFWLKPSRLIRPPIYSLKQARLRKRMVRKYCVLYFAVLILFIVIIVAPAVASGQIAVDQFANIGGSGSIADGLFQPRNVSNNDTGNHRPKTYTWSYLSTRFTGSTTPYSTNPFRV

The first assay addresses glucan synthase (GS) prepared from Candida albicans MY1055 (Candida albicans, UniProt O13428). The experiment in a line: Glucan synthase inhibition (polymerization assay, 96-well). Type of assay: biochemical.
Conditions: not given
The gist of the method: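 Partially purified glucan synthase from C. albicans MY1055 membranes incorporated 0.5 mM ³H-UDPG with 25 μM GTP-γ-S, HEPES pH 7.5, over 60 min at 22 °C. TCA-precipitated glucan was counted by scintillation. IC50 (ng/mL) came from sigmoidal fits of duplicate 3-fold dilution series.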
As for `CC(C)[C@@H](C)[C@@]1(C)CC[C@]2(C)[C@H]3CC[C@@H]4[C@@]5(COC[C@@]4(C)[C@@H](OC[C@](C)(N)C(C)(C)C)[C@H](n4ncnc4-c4ccc[n+](C)c4)C5)C3=CC[C@@]2(C)[C@@H]1C(=O)O` [Example 264, (1S,4aR,6aS,7R,8R,10aR,10bR,12aR,14R,15R)-15-[[(2R)-2-amino-2,3,3-trimethylbutyl]oxy]-8-[(1R)-1,2-dimethylpropyl]-14-[5-(1-methyl-3-pyridiniumyl)-1H-1,2,4-triazol-1-yl]-1,6,6a,7,8,9,10,10a,10b,11,12,12a-dodecahydro-1,6a,8,10a-tetramethyl-4H-1,4a-propano-2H-phenanthro[1,2-c]pyran-7-carboxylic acid trifluoroacetate], half-maximal inhibition (IC50) required 0.403 nM.

The same assay, now with this note: GS from C. albicans MY1055; 60 min incubation at 22° C.; read-out: Candida Albicans GS IC50 (converted).
As to `CC(C)[C@@H](C)[C@@]1(C)CC[C@]2(C)[C@H]3CC[C@@H]4[C@@]5(COC[C@@]4(C)[C@@H](OC[C@](C)(N)C(C)C)[C@H](n4nc(N)nc4-c4ccccc4)C5)C3=CC[C@@]2(C)[C@@H]1C(=O)O` [Example 36, (1S,4aR,6aS,7R,8R,10aR,10bR,12aR,14R,15R)-15-[[(2R)-2-amino-2,3-dimethylbutyl]oxy]-14-(3-amino-5-phenyl-1H-1,2,4-triazol-1-yl)-8-[(1R)-1,2-dimethylpropyl]-1,6,6a,7,8,9,10,10a,10b,11,12,12a-dodecahydro-1,6a,8,10a-tetramethyl-4H-1,4a-propano-2H-phenanthro[1,2-c]pyran-7-carboxylic acid], the half-maximal inhibitory concentration (IC50) (usually the concentration needed to halve the response being measured) was 13.7 nM. Same read-out and setting: under `CC(C)[C@@H](C)[C@@]1(C)CC[C@]2(C)[C@H]3CC[C@@H]4[C@@]5(COC[C@@]4(C)[C@@H](OC[C@@]4(C)CCCN4)[C@H](n4ncnc4-c4ccncc4)C5)C3=CC[C@@]2(C)[C@@H]1C(=O)O` [Example 307, (1S,4aR,6aS,7R,8R,10aR,10bR,12aR,14R,15R)-8-[(1R)-1,2-dimethylpropyl]-15-[[(2R)-2-methyl-2-pyrrolidinyl]methoxy]-14-[5-(4-pyridinyl)-1H-1,2,4-triazol-1-yl]-1,6,6a,7,8,9,10,10a,10b,11,12,12a-dodecahydro-1,6a,8,10a-tetramethyl-4H-1,4a-propano-2H-phenanthro[1,2-c]pyran-7-carboxylic acid] stands 5.6 nM; under `CC(C)[C@@H](C)[C@@]1(C)CC[C@]2(C)[C@H]3CC[C@@H]4[C@@]5(COC[C@@]4(C)[C@@H](OCC(C)(C(C)C)N(C)C)[C@H](n4ncnc4Cl)C5)C3=CC(=O)[C@@]2(C)[C@@H]1C(=O)O` (stereo partly drawn) [Example 9B, (1S,4aR,6aS,7R,8R,10aR,10bR,12aR,14R,15R)-14-(5-chloro-1H-1,2,4-triazol-1-yl)-15-[2-(dimethylamino)-2,3-dimethylbutoxy]-8-[(1R)-1,2-dimethylpropyl]-1,6,6a,7,8,9,10,10a,10b,11,12,12a-dodecahydro-1,6a,8,10a-tetramethyl-6-oxo-4H-1,4a-propano-2H-phenanthro[1,2-c]pyran-7-carboxylic acid], 36.3 nM.

Turning to `CC(C)[C@@H](C)[C@@]1(C)CC[C@]2(C)[C@H]3CC[C@@H]4[C@@]5(COC[C@@]4(C)[C@@H](OC[C@](C)(N)C(C)C)[C@H](n4ncnc4C4=NCCN4)C5)C3=CC[C@@]2(C)[C@@H]1C(=O)O` [Example 128, (1S,4aR,6aS,7R,8R,10aR,10bR,12aR,14R,15R)-15-[[(2R)-2-amino-2,3-dimethylbutyl]oxy]-14-[5-(4,5-dihydro-1H-imidazol-2-yl)-1H-1,2,4-triazol-1-yl]-8-[(1R)-1,2-dimethylpropyl]-1,6,6a,7,8,9,10,10a,10b,11,12,12a-dodecahydro-1,6a,8,10a-tetramethyl-4H-1,4a-propano-2H-phenanthro[1,2-c]pyran-7-carboxylic acid], the half-inhibitory concentration (IC50) was 8.49 nM. For `CNC1(CO[C@H]2[C@H](n3ncnc3C(N)=O)C[C@@]34COC[C@]2(C)[C@@H]3CC[C@H]2C4=CC[C@@]3(C)[C@H](C(=O)O)[C@@](C)([C@H](C)C(C)C)CC[C@]23C)CCCCC1` [Example 107, (1S,4aR,6aS,7R,8R,10aR,10bR,12aR,14R,15R)-14-[5-(aminocarbonyl)-1H-1,2,4-triazol-1-yl]-8-[(1R)-1,2-dimethylpropyl]-15-[[1-(methylamino)cyclohexyl]methoxy]-1,6,6a,7,8,9,10,10a,10b,11,12,12a-dodecahydro-1,6a,8,10a-tetramethyl-4H-1,4a-propano-2H-phenanthro[1,2-c]pyran-7-carboxylic acid], the IC50 was 19.8 nM. Take `CCOC(=O)c1nccn1[C@@H]1C[C@@]23COC[C@](C)([C@@H]2CC[C@H]2C3=CC[C@@]3(C)[C@H](C(=O)O)[C@@](C)([C@H](C)C(C)C)CC[C@]23C)[C@H]1OC[C@](C)(N)C(C)C` [Example 300, (1S,4aR,6aS,7R,8R,10aR,10bR,12aR,14R,15R)-15-[[(2R)-2-amino-2,3-dimethylbutyl]oxy]-8-[(1R)-1,2-dimethylpropyl]-14-[2-(ethoxycarbonyl)-1H-imidazol-1-yl]-1,6,6a,7,8,9,10,10a,10b,11,12,12a-dodecahydro-1,6a,8,10a-tetramethyl-4H-1,4a-propano-2H-phenanthro[1,2-c]pyran-7-carboxylic acid]: the half-maximal inhibitory concentration (IC50) was 675 nM. As to `CC(C)[C@@H](C)[C@@]1(C)CC[C@]2(C)[C@H]3CC[C@@H]4[C@@]5(COC[C@@]4(C)[C@@H](OC[C@](C)(N)C(C)C)[C@H](n4nc(N)nc4C4CC4)C5)C3=CC[C@@]2(C)[C@@H]1C(=O)O` (single isomer, unassigned) [Example 32A], the IC50 was 4.32 nM. For the compound `CC(C)[C@@H](C)[C@@]1(C)CC[C@]2(C)[C@H]3CC[C@@H]4[C@@]5(COC[C@@]4(C)[C@@H](OC[C@](C)(N)C(C)C)[C@H](n4ncnc4-c4ccc(N)cc4)C5)C3=CC[C@@]2(C)[C@@H]1C(=O)O` [Example 200, (1S,4aR,6aS,7R,8R,10aR,10bR,12aR,14R,15R)-15-[[(2R)-2-amino-2,3-dimethylbutyl]oxy]-14-[5-(4-aminophenyl)-1H-1,2,4-triazol-1-yl]-8-[(1R)-1,2-dimethylpropyl]-1,6,6a,7,8,9,10,10a,10b,11,12,12a-dodecahydro-1,6a,8,10a-tetramethyl-4H-1,4a-propano-2H-phenanthro[1,2-c]pyran-7-carboxylic acid], the half-inhibitory concentration (IC50) was 8.22 nM. Still for that read-out and setting: in the case of `CC(C)[C@@H](C)[C@@]1(C)CC[C@]2(C)[C@H]3CC[C@@H]4[C@@]5(COC[C@@]4(C)[C@@H](OC[C@](C)(N)C(C)(C)C)[C@H](n4ncnc4-c4ccc(CN)cc4)C5)C3=CC[C@@]2(C)[C@@H]1C(=O)O` [Example 178, (1S,4aR,6aS,7R,8R,10aR,10bR,12aR,14R,15R)-14-[5-[4-(aminomethyl)phenyl]-1H-1,2,4-triazol-1-yl]-15-[[(2R)-2-amino-2,3,3-trimethylbutyl]oxy]-8-[(1R)-1,2-dimethylpropyl]-1,6,6a,7,8,9,10,10a,10b,11,12,12a-dodecahydro-1,6a,8,10a-tetramethyl-4H-1,4a-propano-2H-phenanthro[1,2-c]pyran-7-carboxylic acid] it was 1.06 nM; in that of `CC(C)[C@@H](C)[C@@]1(C)CC[C@]2(C)[C@H]3CC[C@@H]4[C@@]5(COC[C@@]4(C)[C@@H](OC[C@](C)(N)C(C)C)[C@H](n4ncnc4-c4cncs4)C5)C3=CC[C@@]2(C)[C@@H]1C(=O)O` [Example 193, (1S,4aR,6aS,7R,8R,10aR,10bR,12aR,14R,15R)-15-[[(2R)-2-amino-2,3-dimethylbutyl]oxy]-8-[(1R)-1,2-dimethylpropyl]-14-[5-(5-thiazolyl)-1H-1,2,4-triazol-1-yl]-1,6,6a,7,8,9,10,10a,10b,11,12,12a-dodecahydro-1,6a,8,10a-tetramethyl-4H-1,4a-propano-2H-phenanthro[1,2-c]pyran-7-carboxylic acid], 4.15 nM; in that of `CC(C)[C@@H](C)[C@@]1(C)CC[C@]2(C)[C@H]3CC[C@@H]4[C@@]5(COC[C@@]4(C)[C@@H](OC[C@](C)(N)C(C)(C)C)[C@H](n4ncnc4-c4ccc(C(N)=O)nc4)C5)C3=CC[C@@]2(C)[C@@H]1C(=O)O` [Example 221, (1S,4aR,6aS,7R,8R,10aR,10bR,12aR,14R,15R)-14-[5-[6-(aminocarbonyl)-3-pyridinyl]-1H-1,2,4-triazol-1-yl]-15-[[(2R)-2-amino-2,3,3-trimethylbutyl]oxy]-8-[(1R)-1,2-dimethylpropyl]-1,6,6a,7,8,9,10,10a,10b,11,12,12a-dodecahydro-1,6a,8,10a-tetramethyl-4H-1,4a-propano-2H-phenanthro[1,2-c]pyran-7-carboxylic acid], 3.88 nM. Turning to `C=C(C)c1ncnn1[C@@H]1C[C@@]23COC[C@](C)([C@@H]2CC[C@H]2C3=CC[C@@]3(C)[C@H](C(=O)O)[C@@](C)([C@H](C)C(C)C)CC[C@]23C)[C@H]1OC[C@](C)(N)C(C)C` [Example 168, (1S,4aR,6aS,7R,8R,10aR,10bR,12aR,14R,15R)-15-[[(2R)-2-amino-2,3-dimethylbutyl]oxy]-8-[(1R)-1,2-dimethylpropyl]-14-[5-(1-methylethenyl)-1H-1,2,4-triazol-1-yl]-1,6,6a,7,8,9,10,10a,10b,11,12,12a-dodecahydro-1,6a,8,10a-tetramethyl-4H-1,4a-propano-2H-phenanthro[1,2-c]pyran-7-carboxylic acid], the IC50 is 4.42 nM. In the case of `CC(C)[C@@H](C)[C@@]1(C)CC[C@]2(C)[C@H]3CC[C@@H]4[C@@]5(COC[C@@]4(C)[C@@H](OC[C@](C)(N)C(C)(C)C)[C@H](n4ncnc4-c4ccc(CN(C)C)cc4)C5)C3=CC[C@@]2(C)[C@@H]1C(=O)O` [Example 239, (1S,4aR,6aS,7R,8R,10aR,10bR,12aR,14R,15R)-15-[[(2R)-2-amino-2,3,3-trimethylbutyl]oxy]-14-[5-[4-[(dimethylamino)methyl]phenyl]-1H-1,2,4-triazol-1-yl]-8-[(1R)-1,2-dimethylpropyl]-1,6,6a,7,8,9,10,10a,10b,11,12,12a-dodecahydro-1,6a,8,10a-tetramethyl-4H-1,4a-propano-2H-phenanthro[1,2-c]pyran-7-carboxylic acid], the half-maximal inhibitory concentration (IC50) is 0.127 nM.

The values are drawn from US8188085B2, “Antifungal agents” (Merck Sharp & Dohme Corp., priority 2008, dated 2012).
